# Test results reported in ChEMBL document CHEMBL1201862, “PubChem BioAssay data set” (2004).
#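 All cell lines were grown in 96-well plates and treated with compound for 48 hours. Abbreviation: GI50, concentration required for 50% inhibition of growth.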 Calls of active or inactive are those of the source. Rule as the data show it: active = GI50 up to about 1.1 µM and inactive = higher.
# Tests used:
# Assay in all cases: DTP human tumour cell line panel, 48 h
# 786-0 = tested on: 786-0
# A549 = tested on: A549
# HCC 2998 = tested on: HCC 2998
# HT-29 = tested on: HT-29
# Hs-578T = tested on: Hs-578T
# IGROV-1 = tested on: IGROV-1
# KM12 = tested on: KM12
# MDA-MB-231 = tested on: MDA-MB-231
# MDA-MB-435 = tested on: MDA-MB-435
# MOLT-4 = tested on: MOLT-4
# Malme-3M = tested on: Malme-3M
# NCI-H23 = tested on: NCI-H23
# NCI-H460 = tested on: NCI-H460
# NCI-H522 = tested on: NCI-H522
# OVCAR-3 = tested on: OVCAR-3
# SF-268 = tested on: SF-268
# SK-MEL-2 = tested on: SK-MEL-2
# T47D = tested on: T47D
# TK-10 = tested on: TK-10
Structure (SMILES),GI50 (786-0),GI50 (A549),GI50 (HCC 2998),GI50 (HT-29),GI50 (Hs-578T),GI50 (IGROV-1),GI50 (KM12),GI50 (MDA-MB-231),GI50 (MDA-MB-435),GI50 (MOLT-4),GI50 (Malme-3M),GI50 (NCI-H23),GI50 (NCI-H460),GI50 (NCI-H522),GI50 (OVCAR-3),GI50 (SF-268),GI50 (SK-MEL-2),GI50 (T47D),GI50 (TK-10)
CCCC(=O)OCOC(=O)N(C)/N=N/c1ccc(C(=O)OCC)cc1,17.7 µM (inactive),19.3 µM (inactive),15.2 µM (inactive),18.2 µM (inactive),27.7 µM (inactive),32 µM (inactive),26.4 µM (inactive),36.5 µM (inactive),44.1 µM (inactive),39.4 µM (inactive),20.1 µM (inactive),24.3 µM (inactive),8.97 µM (inactive),17.3 µM (inactive),33.7 µM (inactive),28.3 µM (inactive),15.2 µM (inactive),25.2 µM (inactive),27.9 µM (inactive)
O=C(CCCN1CCC2(CC1)C(=O)NC(=O)N2c1ccccc1)c1ccc(F)cc1,> 100 µM (inactive),> 100 µM (inactive),> 100 µM (inactive),66.2 µM (inactive),> 100 µM (inactive),> 100 µM (inactive),> 100 µM (inactive),> 100 µM (inactive),> 100 µM (inactive),> 100 µM (inactive),> 100 µM (inactive),> 100 µM (inactive),> 100 µM (inactive),8.73 µM (inactive),> 100 µM (inactive),> 100 µM (inactive),> 100 µM (inactive),> 100 µM (inactive),> 100 µM (inactive)
CC(=O)O[C@H]1C(=O)[C@@]2(C)[C@H]([C@H](OC(=O)c3ccccc3)[C@]3(O)C[C@H](OC(=O)[C@H](O)[C@@H](NC(=O)c4ccccc4)c4ccc5ccccc5c4)C(C)=C1C3(C)C)[C@]1(OC(C)=O)CO[C@@H]1C[C@@H]2O,0.153 µM (active),0.0998 µM (active),0.0457 µM (active),0.0454 µM (active),0.0191 µM (active),0.0467 µM (active),0.0512 µM (active),0.0476 µM (active),0.00993 µM (active),0.0264 µM (active),0.179 µM (active),0.0912 µM (active),0.0706 µM (active),0.0524 µM (active),0.0362 µM (active),0.0239 µM (active),0.0362 µM (active),2.16 µM (inactive),0.506 µM (active)
O=[N+]([O-])c1cc(-[n+]2cc([O-])on2)ccc1F,11.7 µM (inactive),17 µM (inactive),14.4 µM (inactive),14.9 µM (inactive),26.7 µM (inactive),14.7 µM (inactive),17.2 µM (inactive),18.7 µM (inactive),16.2 µM (inactive),–,14.7 µM (inactive),18.2 µM (inactive),18.5 µM (inactive),9.02 µM (inactive),17 µM (inactive),14.8 µM (inactive),15.6 µM (inactive),2.49 µM (inactive),18.4 µM (inactive)
COc1cc2oc3c(c(=O)c2c(O)c1/C=C/C(C)C)CCC(C)(C)Oc1cc(O)ccc1-3,14.9 µM (inactive),12 µM (inactive),14.4 µM (inactive),7.13 µM (inactive),10.4 µM (inactive),17.7 µM (inactive),7.41 µM (inactive),16.6 µM (inactive),16.1 µM (inactive),13 µM (inactive),20 µM (inactive),16 µM (inactive),8.41 µM (inactive),18.1 µM (inactive),15.6 µM (inactive),15.6 µM (inactive),16.6 µM (inactive),33.9 µM (inactive),13.8 µM (inactive)
O=C(/C=C1\Nc2ccc([N+](=O)[O-])cc2N\C1=C/C(=O)c1ccc(F)cc1)c1ccc(F)cc1,12.9 µM (inactive),> 100 µM (inactive),80 µM (inactive),> 100 µM (inactive),14.9 µM (inactive),40 µM (inactive),> 100 µM (inactive),16 µM (inactive),> 100 µM (inactive),17.6 µM (inactive),> 100 µM (inactive),19.9 µM (inactive),46.3 µM (inactive),10.5 µM (inactive),25 µM (inactive),9.71 µM (inactive),17.2 µM (inactive),82.8 µM (inactive),15.3 µM (inactive)
COc1cc2c(cc1O)NC(=S)[C@@H]1CCCN1C2=O,> 100 µM (inactive),> 100 µM (inactive),> 100 µM (inactive),> 100 µM (inactive),> 100 µM (inactive),> 100 µM (inactive),> 100 µM (inactive),> 100 µM (inactive),> 100 µM (inactive),> 100 µM (inactive),> 100 µM (inactive),> 100 µM (inactive),> 100 µM (inactive),> 100 µM (inactive),> 100 µM (inactive),> 100 µM (inactive),> 100 µM (inactive),> 100 µM (inactive),> 100 µM (inactive)
O=C(N/N=C\c1cccc2ccccc12)Nc1ccc([N+](=O)[O-])cc1,3.54 µM (inactive),9.71 µM (inactive),15.8 µM (inactive),16.8 µM (inactive),25.4 µM (inactive),18.4 µM (inactive),10.9 µM (inactive),30.7 µM (inactive),18.9 µM (inactive),20.8 µM (inactive),14.2 µM (inactive),8.89 µM (inactive),10.9 µM (inactive),5.66 µM (inactive),7.74 µM (inactive),19.5 µM (inactive),20 µM (inactive),4.28 µM (inactive),4.94 µM (inactive)
CN1CCN(c2n[nH]c(=O)c3c2nnn3C2CCCCC2)CC1,> 100 µM (inactive),> 100 µM (inactive),> 100 µM (inactive),> 100 µM (inactive),> 100 µM (inactive),> 100 µM (inactive),> 100 µM (inactive),> 100 µM (inactive),> 100 µM (inactive),> 100 µM (inactive),> 100 µM (inactive),> 100 µM (inactive),> 100 µM (inactive),> 100 µM (inactive),> 100 µM (inactive),> 100 µM (inactive),> 100 µM (inactive),> 100 µM (inactive),> 100 µM (inactive)
c1ccc(/C(=N/Nc2ccccn2)c2cccnn2)cc1,1.38 µM (inactive),2.43 µM (inactive),5.37 µM (inactive),1.16 µM (inactive),11.8 µM (inactive),1.79 µM (inactive),2.72 µM (inactive),2.57 µM (inactive),4.73 µM (inactive),0.632 µM (active),5.4 µM (inactive),2.91 µM (inactive),1.34 µM (inactive),0.441 µM (active),1.92 µM (inactive),0.853 µM (active),12.7 µM (inactive),9.16 µM (inactive),98.6 µM (inactive)
CCOC(=O)c1c(N2CCOCC2)[nH]c(=O)c(C(c2ccc(N(C)C)cc2)c2c(O)c(C(=O)OCC)c(N3CCOCC3)[nH]c2=O)c1O,> 100 µM (inactive),> 100 µM (inactive),> 100 µM (inactive),> 100 µM (inactive),> 100 µM (inactive),–,> 100 µM (inactive),> 100 µM (inactive),> 100 µM (inactive),> 100 µM (inactive),> 100 µM (inactive),> 100 µM (inactive),> 100 µM (inactive),> 100 µM (inactive),> 100 µM (inactive),> 100 µM (inactive),> 100 µM (inactive),> 100 µM (inactive),> 100 µM (inactive)
CNC(=O)c1nnn(C2CCCCC2)c1S,> 100 µM (inactive),> 100 µM (inactive),> 100 µM (inactive),> 100 µM (inactive),> 100 µM (inactive),> 100 µM (inactive),> 100 µM (inactive),> 100 µM (inactive),> 100 µM (inactive),> 100 µM (inactive),> 100 µM (inactive),> 100 µM (inactive),> 100 µM (inactive),> 100 µM (inactive),0.0885 µM (active),> 100 µM (inactive),> 100 µM (inactive),> 100 µM (inactive),–
C=CC1(CC/C(=C\[N+](=O)[O-])c2ccc(OC)c(OC)c2)OCC(C)(C)CO1,17.1 µM (inactive),23.3 µM (inactive),24.5 µM (inactive),19.9 µM (inactive),24 µM (inactive),–,15.5 µM (inactive),25.9 µM (inactive),19.7 µM (inactive),1.46 µM (inactive),23.2 µM (inactive),14.1 µM (inactive),18.2 µM (inactive),13.8 µM (inactive),20.6 µM (inactive),16 µM (inactive),19.1 µM (inactive),14.5 µM (inactive),17.5 µM (inactive)
Cc1cn(Cc2cccc(C3=NCCCN3)c2)c(=O)n(Cc2cccc(C3=NCCCN3)c2)c1=O,> 100 µM (inactive),> 100 µM (inactive),> 100 µM (inactive),–,> 100 µM (inactive),> 100 µM (inactive),> 100 µM (inactive),> 100 µM (inactive),> 100 µM (inactive),> 100 µM (inactive),> 100 µM (inactive),> 100 µM (inactive),> 100 µM (inactive),> 100 µM (inactive),> 100 µM (inactive),> 100 µM (inactive),> 100 µM (inactive),> 100 µM (inactive),> 100 µM (inactive)
